Experimental data as given in patent JPH10251228A, “ニューロキニンアンタゴニストとしてのピペリジン誘導体” (Schering Plough Corp, priority 1997, dated 1998).
Like-named read-outs stand apart in the source and are kept apart here.

Key:
[1] = molecular target: T1, human NK-1 receptor (ヒトNK-1レセプター) (Homo sapiens, UniProt P25103); experiment: Neurokinin receptor binding assay, human NK1 ([3H]-substance P displacement, transfected CHO cell membranes)
T1 construct: expressed in transfected cells; host or cells: Chinese hamster ovary (CHO) cells, G418-selected; membranes prepared
T1 sequence (P25103 whole entry): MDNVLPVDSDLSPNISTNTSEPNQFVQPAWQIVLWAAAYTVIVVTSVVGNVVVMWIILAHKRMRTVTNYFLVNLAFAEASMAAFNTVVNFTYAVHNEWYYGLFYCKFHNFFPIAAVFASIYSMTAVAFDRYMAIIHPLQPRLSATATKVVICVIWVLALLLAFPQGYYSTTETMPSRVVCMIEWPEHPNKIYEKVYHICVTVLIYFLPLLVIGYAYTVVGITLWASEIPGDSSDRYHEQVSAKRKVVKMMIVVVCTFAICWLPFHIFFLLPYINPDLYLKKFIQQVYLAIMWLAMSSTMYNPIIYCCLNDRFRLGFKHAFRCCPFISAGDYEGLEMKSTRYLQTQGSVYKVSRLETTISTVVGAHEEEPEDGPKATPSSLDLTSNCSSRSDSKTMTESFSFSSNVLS

[2] = molecular target: T2, human NK-2 receptor (ヒトNK-2レセプター) (Homo sapiens, UniProt P21452); experiment: Neurokinin receptor binding assay, human NK2 ([3H]-neurokinin A displacement, transfected CHO cell membranes)
T2 construct: expressed in transfected cells; host or cells: Chinese hamster ovary (CHO) cells, G418-selected; membranes prepared
T2 sequence (P21452 1-398): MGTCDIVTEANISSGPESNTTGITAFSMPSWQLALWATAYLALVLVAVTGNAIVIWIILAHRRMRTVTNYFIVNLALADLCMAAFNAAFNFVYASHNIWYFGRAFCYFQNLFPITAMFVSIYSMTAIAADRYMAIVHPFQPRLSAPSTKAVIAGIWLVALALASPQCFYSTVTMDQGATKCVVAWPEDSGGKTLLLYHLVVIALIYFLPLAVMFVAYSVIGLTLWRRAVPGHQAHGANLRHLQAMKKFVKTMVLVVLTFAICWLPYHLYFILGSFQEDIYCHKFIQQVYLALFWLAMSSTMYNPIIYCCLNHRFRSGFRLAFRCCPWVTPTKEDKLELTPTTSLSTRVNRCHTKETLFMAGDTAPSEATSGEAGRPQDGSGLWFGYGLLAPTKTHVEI

[3] = neurokinin receptor binding assay, [3H]-neurokinin A 1.0 nM, CHO membranes, Cheng-Prusoff, read-out: NK2 Ki (binding)

SMILES	Ki [1] [µM]	Ki [2] [µM]	Ki [2, 3] [µM]	Ki ([1]; neurokinin receptor binding assay, [3H]-substance P 0.8 nM, CHO membranes, Cheng-Prusoff, read-out: NK1 Ki (binding)) [µM]
COc1ccccc1CN(C)C(=O)CC(CCN1CCC(O)(c2ccccc2)CC1)c1ccc(Cl)c(Cl)c1 (stereo not drawn) [β-(3,4-ジクロロフェニル)-4-ヒドロキシ-N-[(2-メトキシフェニル)メチル]-N-メチル-4-フェニル-1-ピペリジンペンタミド]	0.0075	0.033		
COc1cccc(CN(C)C(=O)CC(CCN2CCC(O)(c3ccccc3)CC2)c2ccc(Cl)c(Cl)c2)c1 (stereo not drawn) [β-(3,4-ジクロロフェニル)-4-ヒドロキシ-N-[(3-メトキシフェニル)メチル]-N-メチル-4-フェニル-1-ピペリジンペンタミド]	0.012		0.215	
CN(CCc1ccccc1)C(=O)CC(CCN1CCC(O)(c2ccccc2)CC1)c1ccc(Cl)c(Cl)c1 (stereo not drawn) [β-(3,4-ジクロロフェニル)-4-ヒドロキシ-N-メチル-4-フェニル-N-(2-フェニルエチル)-1-ピペリジンペンタミド]	0.07	0.046		
CN(Cc1ccccc1)C(=O)CC(CCN1CCC(O)(c2ccccc2)CC1)c1ccc(Cl)c(Cl)c1 (stereo not drawn) [β-(3,4-ジクロロフェニル)-4-ヒドロキシ-N-メチル-4-フェニル-N-(フェニルメチル)-1-ピペリジンペンタミド]	0.0068		0.108	
CN(C(=O)CC(CCN1CCC(O)(c2ccccc2)CC1)c1ccc(Cl)c(Cl)c1)c1ccccc1 (stereo not drawn) [β-(3,4-ジクロロフェニル)-4-ヒドロキシ-N-メチル-N,4-ジフェニル-1-ピペリジンペンタミド]		0.0052		0.15
